Measurements taken from patent publication US20250295656A1, “COMBINATION OF LURBINECTEDIN AND IMMUNE CHECKPOINT INHIBITORS” (priority 2020, published 2025).

System: MPA/DMBA-induced tumours
Assay: MPA/DMBA-induced breast cancer model
Type: in vivo, C57BL/6 mice
Conditions: palpable MPA/DMBA-induced tumours; systemic injection
Method: Medroxyprogesterone acetate (MPA) pellets (50 mg, 90-day release) were implanted subcutaneously into the interscapular area of immunocompetent C57BL/6 mice. Then the animals received 1 mg dimethylbenzantracene (DMBA) administered by oral gavage 6× during 7 weeks. When spontaneous tumours became palpable mice were randomly assigned to receive 0.14 mg/Kg lurbinectedin (Lurbi) alone or in combination with double immune checkpoint blockade with monoclonal antibodies targeting CTLA-4 and PD-1 at day 6, 9 and 12 post treatment (a). The tumour area and overall survival were measured regularly until ethical endpoints were reached (b,c,d). Data were analyzed with TumGrowth (https://github.com/kroemerlab). […]
Six- to eight-week-old female wild-type C57BL/6 and nu/nu mice were obtained from Envigo France (Huntingdon, UK) and were kept in the animal facility at the Gustave Roussy Campus Cancer in a specific pathogen-free and temperature-controlled environment with 12 h day, 12 h night cycles and received food and water ad libitum. […] When tumours became palpable, 0.18 mg/Kg lurbinectedin was injected sequentially once a week intravenously into the tail vein and animal well-being and tumour growth were monitored. […] Animals were monitored and tumour growth documented regularly until end-points were reached. […]

For `COc1ccc2[nH]c3c(c2c1)CCN[C@]31CS[C@@H]2c3c(OC(C)=O)c(C)c4c(c3[C@H](COC1=O)N1[C@@H]2[C@H]2c3c(cc(C)c(OC)c3O)C[C@@H]([C@@H]1O)N2C)OCO4` [lurbinectedin], the overall survival was “increased” and the tumour growth was “significantly reduced”.
